# Biological target: T1, human recombinant full-length fatty acid synthase (FASN) (Homo sapiens, UniProt P49327)
# T1 construct: human recombinant full-length fatty acid synthase; made in house; host or cells: SF9 cells
# Assay: Biochemical activity testing of human fatty acid synthase FASN (NADPH fluorescence intensity assay)
# Settings: NADPH fluorescence decrease (ex 340 nm / em 460 nm), 30 minutes at room temperature, read-out: IC50 FASN (enzyme assay)
# Source text: aq (aqueous), h (hour), g (gram), L (liter), mg (milligram), MHz (Megahertz), (melting point), eq (equivalent), mL (milliliter), L (microliter), ACN (acetonitrile), AcOH (acetic acid), CDCl3 (deuterated chloroform), CD3OD (deuterated methanol), CH3CN (acetonitrile), c-hex (cyclohexane), DCC (dicyclohexyl carbodiimide), DCM (dichloromethane), DIC (diisopropyl carbodiimide), DIEA (diisopropylethyl-amine), DMF (dimethylformamide), DMSO (dimethylsulfoxide), DMSO-d6 (deuterated dimethylsulfoxide), EDC (1-(3-dimethyl-amino-propyl)-3-ethylcarbodiimide), ESI (Electro-spray ionization), EtOAc (ethyl acetate), Et2O (diethyl ether), EtOH (ethanol), HATU (dimethylamino-([1,2,3]triazolo[4,5-b]pyridin-3-yloxy)-methylene]-dimethylammonium hexafluorophosphate), HPLC (High Performance Liquid Chromatography), i-PrOH (2-propanol), K2CO3 (potassium carbonate), LC (Liquid Chromatography), MeOH (methanol), MgSO4 (magnesium sulfate), MS (mass spectrometry), MTBE (Methyl tert-butyl ether), NaHCO3 (sodium bicarbonate), NaBH4 (sodium borohydride), NMM (N-methyl morpholine), NMR (Nuclear Magnetic Resonance), PyBOP (benzotriazole-1-yl-oxy-trispyrrolidino-phosphonium hexafluorophosphate), RT (room temperature), Rt (retention time), SPE (solid phase extraction), TBTU (2-(1-H-benzotriazole-1-yl)-1,1,3,3-tetramethyluromium tetrafluoro borate), TEA (triethylamine), TFA (trifluoroacetic acid), THF (tetrahydrofuran), TLC (Thin Layer Chromatography), UV (Ultraviolet). Description of the In Vitro Assays Abbreviations: GST=Glutathione-S-transferase FRET=Fluorescence resonance energy transfer HTRF®=(homogenous time resolved fluorescence) HEPES=4-(2-hydroxyethyl)-1-piperazine ethanesulfonic acid buffer DTT=Dithiothreitol BSA=bovine serum albumin CHAPS=detergent; CHAPS=3[(3-cholamidopropyl)dimethylammonio]-1-propanesulfonate Biochemical Activity Testing of Human Fatty Acid Synthase FASN
# Fatty acid synthase FASN is a multifunctional enzyme with seven catalytic activities thereby synthesising long chain fatty acids especially palmitoyl-CoA in the presence of co-factor NADPH starting from the substrates acetyl-CoA and malonyl-CoA. The reductive synthesis is realized by the oxidation of NADPH to NADP. Since NADPH has a high fluorescence intensity quantum yield compared to NADP with excitation at 340 nm and emission at 460 nm, the reaction can be monitored via the decrease in fluorescence intensity. The biochemical FASN activity testing was performed as 384 well two-time-point kinetic fluorescence intensity assay format in Greiner low volume medium binding 384-well black microtiter plates in a total assay volume of 8 μl and was used for high throughput screen. In each well 3 μl 40 nM human recombinant full-length fatty acid synthase (produced in-house in SF9 cells) were dispensed in the following assay buffer: 50 mM potassium phosphate buffer pH 7.0, 0.005% (w/v) BSA, 2 mM Glutathione, 0.02% Tween-20. Then 2 μl of 200 μM NADPH in assay buffer were added, followed by the addition of the test compounds in 10 dilution concentrations starting with 30 μM (final concentration) to get a final DMSO content of 1% (v/v). The mixture was incubated for at least 15 min at room temperature. After the pre-incubation the enzymatic reaction was started by the addition of 2 μl substrate solution (80 μM acetyl-CoA, 240 μM malonyl-CoA). A first fluorescence intensity measurement (time point one) was performed with an Envision multimode reader (Perkin Elmer LAS Germany GmbH) at excitation wavelength 340 nm (lamp mode) and emission wavelength 460 nm. The reaction was incubated for 30 minutes at room temperature. After this the fluorescence intensity was measured again in the Envision using the same parameters as described above (second time point measurement). The data were analysed by subtracting the first time point measurement value from the second time point measurement value (after the enzymatic reaction). The differences of the emission signals were determined. […]
# T1 sequence (P49327 whole entry): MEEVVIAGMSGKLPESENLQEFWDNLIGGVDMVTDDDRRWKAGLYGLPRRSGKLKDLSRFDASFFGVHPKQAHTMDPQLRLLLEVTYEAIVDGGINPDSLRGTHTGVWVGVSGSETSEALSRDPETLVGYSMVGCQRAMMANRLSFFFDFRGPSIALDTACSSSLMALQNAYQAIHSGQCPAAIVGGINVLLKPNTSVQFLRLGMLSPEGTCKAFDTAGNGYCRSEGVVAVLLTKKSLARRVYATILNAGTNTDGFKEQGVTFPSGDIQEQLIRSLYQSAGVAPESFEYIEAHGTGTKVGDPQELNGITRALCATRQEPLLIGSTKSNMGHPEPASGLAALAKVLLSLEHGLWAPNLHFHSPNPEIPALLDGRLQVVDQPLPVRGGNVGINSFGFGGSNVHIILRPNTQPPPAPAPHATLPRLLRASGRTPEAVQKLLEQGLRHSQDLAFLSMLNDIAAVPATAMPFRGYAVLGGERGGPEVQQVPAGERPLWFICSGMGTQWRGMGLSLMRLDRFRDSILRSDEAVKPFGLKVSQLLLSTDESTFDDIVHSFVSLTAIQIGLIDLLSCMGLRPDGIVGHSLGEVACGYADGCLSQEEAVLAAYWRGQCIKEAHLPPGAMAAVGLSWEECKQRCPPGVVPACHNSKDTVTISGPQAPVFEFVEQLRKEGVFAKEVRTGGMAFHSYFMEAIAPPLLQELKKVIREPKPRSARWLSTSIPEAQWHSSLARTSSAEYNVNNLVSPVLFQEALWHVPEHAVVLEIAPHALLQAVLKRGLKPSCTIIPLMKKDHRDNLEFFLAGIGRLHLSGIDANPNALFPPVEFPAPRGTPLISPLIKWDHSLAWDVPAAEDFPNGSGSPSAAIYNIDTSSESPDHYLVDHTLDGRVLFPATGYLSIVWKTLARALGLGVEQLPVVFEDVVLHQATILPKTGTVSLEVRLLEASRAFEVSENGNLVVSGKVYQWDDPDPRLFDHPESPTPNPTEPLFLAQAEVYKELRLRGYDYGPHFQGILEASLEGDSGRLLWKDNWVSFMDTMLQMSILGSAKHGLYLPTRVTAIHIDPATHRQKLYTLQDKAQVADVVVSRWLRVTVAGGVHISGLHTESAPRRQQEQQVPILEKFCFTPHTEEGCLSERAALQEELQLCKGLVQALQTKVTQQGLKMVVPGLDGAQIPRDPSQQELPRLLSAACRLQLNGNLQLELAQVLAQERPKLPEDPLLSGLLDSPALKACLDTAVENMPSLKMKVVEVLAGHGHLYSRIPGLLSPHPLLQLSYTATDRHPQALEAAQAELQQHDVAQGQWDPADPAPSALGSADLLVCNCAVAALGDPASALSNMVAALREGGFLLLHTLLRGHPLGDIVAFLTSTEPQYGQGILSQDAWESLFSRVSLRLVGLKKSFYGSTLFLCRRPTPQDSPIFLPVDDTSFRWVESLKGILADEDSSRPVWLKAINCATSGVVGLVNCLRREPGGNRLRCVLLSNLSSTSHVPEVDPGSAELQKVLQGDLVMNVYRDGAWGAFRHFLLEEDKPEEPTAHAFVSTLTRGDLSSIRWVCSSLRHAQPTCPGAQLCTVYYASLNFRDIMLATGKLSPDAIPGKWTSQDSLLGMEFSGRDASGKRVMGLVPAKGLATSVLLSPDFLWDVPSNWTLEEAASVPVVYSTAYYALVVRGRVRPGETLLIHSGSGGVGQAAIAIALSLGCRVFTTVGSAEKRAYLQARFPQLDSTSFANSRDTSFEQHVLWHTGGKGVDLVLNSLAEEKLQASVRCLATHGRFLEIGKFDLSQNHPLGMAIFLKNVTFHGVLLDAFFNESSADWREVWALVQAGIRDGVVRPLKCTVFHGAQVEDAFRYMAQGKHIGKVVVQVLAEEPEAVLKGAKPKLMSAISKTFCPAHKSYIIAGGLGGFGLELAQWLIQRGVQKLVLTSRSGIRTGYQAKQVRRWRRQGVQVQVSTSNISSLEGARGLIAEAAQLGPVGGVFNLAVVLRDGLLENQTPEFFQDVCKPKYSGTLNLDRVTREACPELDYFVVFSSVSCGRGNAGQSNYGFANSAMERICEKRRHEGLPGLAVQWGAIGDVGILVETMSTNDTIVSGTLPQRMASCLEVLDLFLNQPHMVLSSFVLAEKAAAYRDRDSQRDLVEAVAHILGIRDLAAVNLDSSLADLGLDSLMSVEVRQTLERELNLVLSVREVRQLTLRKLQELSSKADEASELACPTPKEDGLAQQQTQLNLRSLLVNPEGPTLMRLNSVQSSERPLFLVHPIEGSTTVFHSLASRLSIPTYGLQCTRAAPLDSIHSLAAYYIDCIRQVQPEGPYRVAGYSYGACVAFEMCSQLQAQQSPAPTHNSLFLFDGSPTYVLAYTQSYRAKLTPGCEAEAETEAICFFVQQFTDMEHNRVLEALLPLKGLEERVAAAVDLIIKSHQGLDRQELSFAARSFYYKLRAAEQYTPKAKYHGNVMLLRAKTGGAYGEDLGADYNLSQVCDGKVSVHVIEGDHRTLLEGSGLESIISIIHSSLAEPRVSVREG
row,SMILES,IC50 [nM]
1,"CCNC(=O)[C@H]1CC[C@@H](N(C)C(=O)c2ccc(-c3nc4ccc(F)cc4o3)cc2)C1 [Compound A98, N-((1R,3S)-3-ethylcarbamoyl-cyclopentyl)-4-(6-fluoro-benzooxazol-2-yl)-N-methyl-benzamide]",< 300
2,"CCNC(=O)[C@H]1CC[C@@H](N(C)C(=O)c2ccc(-c3ccccc3S(N)(=O)=O)cc2)C1 [Compound A61, 2′-sulfamoyl-biphenyl-4-carboxylic acid ((1R,3S)-3-ethylcarbamoyl-cyclopentyl)-methyl-amide]",< 300
3,"CCNC(=O)[C@H]1CC[C@@H](N(C)C(=O)c2ccc(-c3ccccc3S(C)(=O)=O)cc2)C1 [Compound A59, 2′-methanesulfonyl-biphenyl-4-carboxylic acid ((1R,3S)-3-ethylcarbamoyl-cyclopentyl)-methyl-amide]",< 300
4,"CC(C)NC(=O)[C@H]1CC[C@@H](N(C)C(=O)c2ccc(-c3nc4ccccc4o3)cc2)C1 [Compound A5, 4-benzoxazol-2-yl-N-((1R,3S)-3-isopropylcarbamoyl-cyclopentyl)-N-methyl-benzamide]",< 300
5,"CCNC(=O)C1CC[C@@H](N(C)C(=O)c2ccc(-c3nc4cccc(F)c4o3)cc2)C1 (stereo in doubt) [Compound A100, N-((1R,3S)-3-ethylcarbamoyl-cyclopentyl)-4-(7-fluoro-benzooxazol-2-yl)-N-methyl-benzamide]",< 300
6,"CN(C(=O)c1ccc(-c2nc3ccccc3o2)cc1)[C@@H]1CC[C@H](C(=O)NC2(CO)CC2)C1 [Compound A108, 4-benzoxazol-2-yl-N-[(1R,3S)-3-(1-hydroxymethyl-cyclopropylcarbamoyl)-cyclopentyl]-N-methyl-benzamide]",300 to 3000
7,"CCN(CC)C(=O)[C@H]1CC[C@@H](N(C)C(=O)c2ccc(-c3nc4ccccc4o3)cc2)C1 [Compound A48, 4-benzoxazol-2-yl-N-((1R,3S)-3-diethylcarbamoyl-cyclopentyl)-N-methyl-benzamide]",300 to 3000
8,"CC[C@H](C)NC(=O)[C@H]1CC[C@@H](N(C)C(=O)c2ccc(-c3nc4ccccc4o3)cc2)C1 [Compound A74, 4-(1,3-benzoxazol-2-yl)-N-methyl-N-[(1R,3S)-3-[[(1S)-1-methylpropyl]-carbamoyl]cyclopentyl]benzamide]",< 300
9,"CCNC(=O)[C@H]1CC[C@@H](N(C)C(=O)c2ccc(-c3nc4ccccc4[nH]3)cc2)C1 [Compound A11, 4-(1H-benzimidazol-2-yl)-N-[(1R,3S)-3-(ethylcarbamoyl)cyclopentyl]-N-methyl-benzamide]",< 300
10,"CN(C(=O)c1ccc(-c2nc3ccccc3o2)cc1)[C@@H]1CC[C@H](C(N)=O)C1 [Compound A86, 4-benzoxazol-2-yl-N-((1R,3S)-3-carbamoyl-cyclopentyl)-N-methyl-benzamide]",300 to 3000
11,"CCNC(=O)[C@H]1CC[C@@H](N(C)C(=O)c2ccc(-c3ccccc3)cn2)C1 [Compound A53, 5-phenyl-pyridine-2-carboxylic acid ((1R,3S)-3-ethylcarbamoyl-cyclopentyl)-methyl-amide]",< 300
12,"CN(C(=O)c1ccc(-c2ccccc2)cc1)[C@@H]1CC[C@H](C(=O)NC2(C)CC2)C1 [Compound A67, biphenyl-4-carboxylic acid methyl-[(1R,3S)-3-(1-methyl-cyclopropylcarbamoyl)-cyclopentyl]-amide]",< 300
13,"CCNC(=O)[C@H]1CC[C@@H](N(C)C(=O)c2ccc(-c3ccccc3C)c(C)c2)C1 [Compound A65, 2,2′-dimethyl-biphenyl-4-carboxylic acid ((1R,3S)-3-ethylcarbamoyl-cyclopentyl)-methyl-amide]",< 300
14,"CCNC(=O)[C@H]1CC[C@@H](N(C)C(=O)c2ccc(-c3nnc(OC)cc3C)cc2)C1 [Compound A52, N-((1R,3S)-3-ethylcarbamoyl-cyclopentyl)-4-(6-methoxy-4-methyl-pyridazin-3-yl)-N-methyl-benzamide]",3000 to 50000
15,"CCNC(=O)[C@H]1CC[C@@H](N(C)C(=O)c2ccc(-c3nc4ccccc4o3)cc2OC)C1 [Compound A46, 4-benzoxazol-2-yl-N-((1R,3S)-3-ethylcarbamoyl-cyclopentyl)-2-methoxy-N-methyl-benzamide]",< 300
16,"CN(C(=O)c1ccc(-c2nc3ccccc3o2)cc1)[C@@H]1CC[C@H](C(=O)NC2(C)CC2)C1 [Compound A68, 4-benzoxazol-2-yl-N-methyl-N-[(1R,3S)-3-(1-methyl-cyclopropylcarbamoyl)-cyclopentyl]-benzamide]",< 300
17,"COC[C@H](C)NC(=O)[C@H]1CC[C@@H](N(C)C(=O)c2ccc(-c3nc4ccccc4o3)cc2)C1 [Compound A92, 4-benzoxazol-2-yl-N-[(1R,3S)-3-((S)-2-methoxy-1-methyl-ethylcarbamoyl)-cyclopentyl]-N-methyl-benzamide]",300 to 3000
18,"CC[C@@H](C)NC(=O)[C@H]1CC[C@@H](N(C)C(=O)c2ccc(-c3nc4ccccc4o3)cc2)C1 [Compound A75, 4-(1,3-benzoxazol-2-yl)-N-methyl-N-[(1R,3S)-3-[[(1R)-1-methylpropyl]-carbamoyl]cyclopentyl]benzamide]",< 300
19,"CCNC(=O)[C@H]1CC[C@@H](N(C)C(=O)c2ccc(C#Cc3ccc(OC)cc3)cc2)C1 [Compound A69, N-((1R,3S)-3-ethylcarbamoyl-cyclopentyl)-4-(4-methoxy-phenylethynyl)-N-methyl-benzamide]",< 300
20,"CN(C(=O)c1ccc(C#Cc2ccc(F)cc2)cc1)[C@@H]1CC[C@H](C(=O)NC2(C)CC2)C1 [Compound A72, 4-(4-fluoro-phenylethynyl)-N-methyl-N-[(1R,3S)-3-(1-methyl-cyclopropylcarbamoyl)-cyclopentyl]-benzamide]",< 300
21,"C[C@H](CO)NC(=O)[C@H]1CC[C@@H](N(C)C(=O)c2ccc(-c3nc4ccccc4o3)cc2)C1 [Compound A91, 4-benzoxazol-2-yl-N-[(1R,3S)-3-((R)-2-hydroxy-1-methyl-ethylcarbamoyl)-cyclopentyl]-N-methyl-benzamide]",< 300
22,"CN(C(=O)c1ccc(-c2ccc(C#N)cc2)cc1)[C@@H]1CC[C@H](C(=O)NC2(C)CC2)C1 [Compound A81, 4-(4-cyanophenyl)-N-methyl-N-[(1R,3S)-3-[(1-methylcyclopropyl)-carbamoyl]cyclopentyl]benzamide]",< 300
23,"CCNC(=O)[C@H]1CC[C@@H](N(C)C(=O)c2c(F)cc(-c3ccc(CC)cc3)cc2F)C1 [Compound A58, 4′-ethyl-3,5-difluoro-biphenyl-4-carboxylic acid ((1R,3S)-3-ethylcarbamoyl-cyclopentyl)-methyl-amide]",< 300
24,"CCNC(=O)[C@H]1CC[C@@H](N(C)C(=O)c2ccc(C#Cc3ccc(F)cc3)cc2)C1 [Compound A55, N-((1R,3S)-3-ethylcarbamoyl-cyclopentyl)-4-(4-fluoro-phenylethynyl)-N-methyl-benzamide]",< 300
25,"CCNC(=O)[C@H]1CC[C@@H](N(C)C(=O)c2ccc(-c3ccc(C)cc3)cc2)C1 [Compound A49, 4′-methyl-biphenyl-4-carboxylic acid ((1R,3S)-3-ethylcarbamoyl-cyclopentyl)-methyl-amide]",< 300
26,"CCNC(=O)[C@H]1CC[C@@H](N(C)C(=O)c2ccc(-c3ccccc3S(=O)(=O)NC(C)(C)C)cc2)C1 [Compound A60, 2′-tert-butylsulfamoyl-biphenyl-4-carboxylic acid ((1R,3S)-3-ethylcarbamoyl-cyclopentyl)-methyl-amide]",3000 to 50000

# Source: patent US9732032B2, “3-aminocyclopentane carboxamide derivatives” (Merck Patent GmbH, priority 2012, dated 2017)
